# System: SK-MEL-5 TRPM1-promoter luciferase reporter, 24 h
# Test: TRPM1 promoter luciferase signal decrease, dose response, MITF inhibitor project, cell-based, SK-MEL-5, cherry-picked, set 4 (AID 493102);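 note: actives lower the luciferase signal so the potency reflects inhibition of reporter expression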
row,SMILES,AC50
1,CN(C)S(=O)(=O)c1cccc(NC(=O)CSc2nc3c(cc2C#N)C(=O)CC(C)(C)C3)c1,9.02 µM
2,Cc1ccc(-c2nnc(SCC(=O)Nc3ccccc3F)o2)cc1,2.3 µM
3,CCN(CC)S(=O)(=O)c1ccc(NC(=O)c2cccnc2Cl)c(NC(=O)c2cccnc2Cl)c1,7.03 µM
4,Cc1ccc(S(=O)(=O)CC(CN2CCCCC2)N2CCCCC2)cc1 (stereo not drawn),8.1 µM
5,Cc1ccc(C2CC(C(F)(F)F)n3nc(C(=O)NCc4c(C)nn(C)c4C)c(Cl)c3N2)cc1 (stereo not drawn),8.89 µM
6,O=C(N/N=C/c1ccc([N+](=O)[O-])s1)C(O)c1ccccc1 (stereo not drawn),4.48 µM
7,COc1ccc(-c2nn(-c3ccccc3)cc2/C=N/N=C(N)N)cc1OC,14.6 µM
8,O=C(O)c1cc2ccccc2c(N=Nc2cccnc2)c1O,11.4 µM
9,COCCN(C(=O)CCl)C(C(=O)NC1CCCCC1)c1ccccc1C (stereo not drawn),17.8 µM
10,Cc1cc(C)c2nc3nc(C)cc(C)c3c(N)c2c1,5.72 µM
11,COc1ccc(Cn2c(-c3ccc(C)cc3)c[n+]3ccccc23)cc1,2.89 µM
12,CCN(CC)S(=O)(=O)c1ccc(N2CCCC2)c(NC(=O)c2ccc([N+](=O)[O-])o2)c1,3.18 µM
13,C=CCn1c(C)cc(C(=O)CN2C(=O)c3ccccc3S2(=O)=O)c1C,0.666 µM
14,Cc1cc(C(C)(C)C)cc(C)c1Cn1c2[n+](c3ccc(C(F)(F)F)cc31)CCCCC2,7.55 µM
15,Cc1cc2ncn(/N=C/c3ccc([N+](=O)[O-])o3)c2cc1C,21.9 µM
16,CCN1CCN(C2=C(NS(=O)(=O)c3ccc(C)cc3)C(=O)c3ccccc3C2=O)CC1,4.18 µM
17,O=C(Nc1ccccc1)NN(C(=O)CCl)c1ccccc1,8.5 µM
18,O=C(Nc1ccc(N2CCOCC2)cc1)c1cnsn1,3.05 µM
19,CN(C)c1ccc(/C=C(\C#N)c2ccccn2)cc1,6.32 µM
20,Cc1c(C#N)c(NC(=O)CCl)n(Cc2cccs2)c1C,7.06 µM
21,Cc1ccc(S(=O)(=O)/N=C2\C(=O)c3ccccc3C([O-])=C2n2cc[n+](CCC(C)C)c2)cc1,4.11 µM
22,O=C(Cc1ccc2c(c1)OCO2)NN=Cc1ccc([N+](=O)[O-])o1,8.55 µM
23,COc1cccc(N2CCN(C(=O)c3ccc(CS(=O)c4ccccc4Cl)o3)CC2)c1 (stereo not drawn),0.894 µM
24,O=C1NC(=O)C(=Cc2ccc(-c3cc(Cl)ccc3[N+](=O)[O-])o2)C(=O)N1,17.2 µM
25,COCCCn1[nH]c2c3c(ccc2c1=O)C(=O)c1ccccc1C3=O,8.86 µM
26,CC(=O)N(C)C1=C(N2CCOCC2)C(=O)c2ccccc2C1=O,3.5 µM

row,SMILES,AC50
1,COc1cccc(C(=O)N/N=C(/c2ccccc2)c2ccccn2)c1,5.8 µM
2,Cc1cc(NC(=O)c2ccc([N+](=O)[O-])o2)ccc1NC(=O)c1ccco1,7.8 µM
3,Cc1ccn2c(Nc3ccccc3)c(-c3ccccn3)nc2c1,9.31 µM
4,Cc1ccc2c(c1)Oc1ccc(NC(=O)CCl)cc1C(=O)N2,10.1 µM
5,COc1ccc2c(C)nc(Nc3nc(-c4ccccc4)cc(=O)[nH]3)nc2c1,2.91 µM
6,Cc1cc(C)cc(OCC(=O)N/N=C/c2ccc([N+](=O)[O-])o2)c1,7.12 µM
7,CCN1CCN(c2ccc(Nc3ccnc4ccccc34)cc2)CC1,12.3 µM
8,C=CCC(Nc1ccccc1)C12C=CC(O1)C(C(=O)OC)=C2C(=O)OC (stereo not drawn),11.7 µM
9,Cc1ccc(-c2cc3onc(-c4ccccc4)c3c(=O)n2C)cc1,9.77 µM
10,Nc1nnnn1/N=C/C(Br)=C/c1ccccc1,5.44 µM
11,COc1ccc(C(CCNC(C)c2ccccc2)c2ccc(F)cc2)cc1 (stereo not drawn),16.6 µM
12,COc1cccc(/C=C2/Sc3ccc(C(=O)NCCN4CCCC4)cc3NC2=O)c1,17.9 µM
13,Cc1cc(Br)ccc1NC(=O)CNC(=O)Cn1ncc(Cl)c(Cl)c1=O,7.47 µM
14,O=C(O)c1cccc(N/N=C/c2ccc(OC(F)(F)F)cc2)c1,5.95 µM
15,CCOCCCNC(=O)/C(C#N)=C/c1ccc(Cl)c([N+](=O)[O-])c1,7.38 µM
16,CN1CCN(c2ccc(NC(=O)c3ccc([N+](=O)[O-])o3)cc2Cl)CC1,9.02 µM
17,Cc1ccccc1NC(=O)Cc1nc(COC(=O)c2ccc(S(C)(=O)=O)c([N+](=O)[O-])c2)cs1,12.8 µM
18,Cc1c(CCOC(=O)c2ccc(Cl)cc2Cl)sc[n+]1CC(=O)c1ccc(Br)cc1,19.8 µM
19,O=C(O)c1ccc(N/N=C/c2ccc(OC(=O)c3cccc(Cl)c3)cc2)cc1,3.21 µM
20,c1ccc(C[n+]2cccc3c4ccccc4ccc32)cc1,3.41 µM
21,CCOC(=O)c1nnn(-c2ccc([N+](=O)[O-])cc2[N+](=O)[O-])c1C,8.85 µM
22,COc1ccc(/C=N/Nc2cc(C)nc(-n3nc(C)cc3C)n2)c(OC)c1,10.4 µM
23,O=C(NC(=S)NCc1ccccc1)c1ccccc1,22.1 µM
24,O=C(N/N=C\c1ccc([N+](=O)[O-])o1)C1COc2ccccc2O1 (stereo not drawn),7.21 µM
25,CCOC(=O)Cn1c(=NC(=O)c2ccc([N+](=O)[O-])s2)sc2ccccc21,3.5 µM
26,Cc1cc(C)c2c(N)c(C(=O)Nc3ncc(C)s3)sc2n1,1.09 µM

row,SMILES,AC50
1,Cn1cccc1-c1cc(C(=O)N/N=C/c2cc(Br)ccc2O)[nH]n1,5.25 µM
2,C=C1C(=O)O[C@@]23[C@H]1CC[C@@H](C)[C@@H]2CC[C@@]1(C)O[C@@H]31,5.22 µM
3,O=C(N/N=C/c1ccccc1Cl)c1n[nH]c2c1CCCC2,7.97 µM
4,Cc1cc(/C=C2\Sc3ccccc3N2C)cc(C)[n+]1CC1CCCO1 (stereo not drawn),1.82 µM
5,CC(C)(C)NC(=O)CCN(/N=C/c1ccc([N+](=O)[O-])o1)C1=NS(=O)(=O)c2ccccc21,7.18 µM
6,CCC(=O)N1CCN(c2ccc(NC(=O)c3ccc([N+](=O)[O-])o3)cc2)CC1,8.69 µM
7,Cc1cccc2sc(N(CCCN(C)C)C(=O)c3nc4ccccc4s3)nc12,10.9 µM
8,Cc1cc(C)n(-c2ccc(C(=O)Nc3ccc(C)c(S(=O)(=O)N4CCOCC4)c3)cc2)n1,4.54 µM
9,COC(=O)c1ccc(/C=C(\C#N)C(=O)NC(C)c2ccccc2)cc1 (stereo not drawn),10.7 µM
10,Cc1cc(C)cc(NC(=O)c2ccc([N+](=O)[O-])o2)c1,16.6 µM
11,Cc1ccc(C2=NN(C(=O)CCl)C(c3cccs3)C2)o1 (stereo not drawn),6.1 µM
12,COc1cccc(C(=O)Nc2ccc3c(cc2=O)[C@@H](NC(C)=O)CCc2cc(OC)c(OC)c(OC)c2-3)c1,8.43 µM
13,O=C1C(Cl)=C(N2CCN(c3ccccc3[N+](=O)[O-])CC2)C(=O)c2ccccc21,3.59 µM
14,O=[N+]([O-])c1ccc(-n2nnnc2-c2ccccc2)c([N+](=O)[O-])c1,7.37 µM
15,Cc1ccc(C(C)C)c(OCc2nn(CC(=O)c3ccc(Cl)cc3)c3[n+]2CCCCC3)c1,9.83 µM
16,CCOc1ccc2nc(NC3=NC(c4ccc(OC)cc4)CC(=O)N3)nc(C)c2c1 (stereo not drawn),9.49 µM
17,CC(=O)c1cccc(NC(=O)/C=C/c2ccc([N+](=O)[O-])s2)c1,7.16 µM
18,Cc1cc(C)c2c(N)c3cccc(C)c3nc2n1,3.21 µM
19,CCN1CCN(c2ccc(S(=O)(=O)N3CCOCC3)cc2NC(=O)/C=C/c2ccc([N+](=O)[O-])cc2)CC1,8.13 µM
20,O=C1NC(=O)N(c2ccccc2)C(=O)/C1=C/C=C/c1ccco1,8.29 µM
21,O=C(Cc1ccccc1)NCC(=O)N/N=C/c1ccc([N+](=O)[O-])s1,16.1 µM
22,N=c1n(CC(=O)c2ccc([N+](=O)[O-])cc2)c2ccccc2n1Cc1ccccc1Cl,4.03 µM
23,Oc1c(CN2CCCC2)cc(COCc2ccccc2)c2cccnc12,6.15 µM
24,Cc1ccc(C(=O)N/N=C/c2ccc([N+](=O)[O-])s2)cc1,2.2 µM
25,CC1CCN(Cc2nc(-c3ccc(Cl)cc3)no2)CC1,7.62 µM
26,O=S(=O)(c1ccc(Cl)cc1)N1CCN(Cc2ccc(O)c3ncccc23)CC1,4.37 µM
